Source: PubChem BioAssay (NCI)
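Protocol summary: plate cells (96-well), add compound at 5 concentrations, incubate 48 h, interpolate endpoints linearly. At the TGI there is no net growth.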

How the values were obtained:
Assay in all cases: inhibition of tumour cell growth, NCI panel, 48 h
[1] = tested on: NCI-H522 lung
[2] = tested on: TK-10 renal
[3] = tested on: NCI-H23 lung
[4] = tested on: HCT-15 colon
[5] = tested on: SF-539 CNS
[6] = tested on: SK-MEL-5 melanoma
[7] = tested on: COLO 205 colon
[8] = tested on: MOLT-4 leukemia
[9] = tested on: LOX IMVI melanoma
[10] = tested on: BT-549 breast

| SMILES | TGI [1] | TGI [2] | TGI [3] | TGI [4] | TGI [5] | TGI [6] | TGI [7] | TGI [8] | TGI [9] | TGI [10] |
| --- | --- | --- | --- | --- | --- | --- | --- | --- | --- | --- |
| CC(C)(CO[C@H]1C[C@H]2CC[C@@]1(C)C2(C)C)[N+](=O)[O-] | 40.5 µM | 34 µM | 65.6 µM | 51.6 µM | 32.1 µM | 31.6 µM | 31.4 µM | 50.5 µM | 35.1 µM | 45.5 µM |
| COC(=O)C1=C(CCCCO[Si](C)(C)C(C)(C)C)NC(=O)N2[C@H](CCOCc3ccccc3)CC[C@@H]12 | > 100 µM | > 100 µM | > 100 µM | > 100 µM | > 100 µM | 28.3 µM | > 100 µM | > 100 µM | – | > 100 µM |
| O=C(O)CSC(CC(=O)c1ccc(Cl)cc1)c1ccc(Cl)cc1 (configuration not stated) | 45.3 µM | > 100 µM | > 100 µM | > 100 µM | > 100 µM | > 100 µM | > 100 µM | 27 µM | 40.1 µM | 80.7 µM |
| Nc1[nH]c(=O)nc2c1ncn2C1OC(CO)C(O)C1O (configuration not stated) | > 100 µM | > 100 µM | > 100 µM | 95.4 µM | – | > 100 µM | > 100 µM | 63.3 µM | > 100 µM | > 100 µM |
| CCCCCC[C@H]([C@H](C)O)n1cnc2c(N)ncnc21 | – | > 100 µM | > 100 µM | > 100 µM | > 100 µM | > 100 µM | > 100 µM | > 100 µM | > 100 µM | – |
| Cc1c(C)c2c(c(N)c1C#N)C(=O)N(N)C2=O | > 100 µM | > 100 µM | > 100 µM | > 100 µM | > 100 µM | > 100 µM | > 100 µM | > 100 µM | – | > 100 µM |
| C/C(=N\Nc1nc2ccccc2s1)c1ccncn1 | 2.05 µM | – | 5.55 µM | 15.9 µM | 35.9 µM | 7.08 µM | 11.1 µM | – | – | 21.4 µM |
| Cc1ccccc1NC(=O)O/N=C(\Cl)C(C)C | 3.18 µM | 8.19 µM | 32 µM | 4.17 µM | 22.6 µM | 25.9 µM | 3.29 µM | > 28 µM | 3.11 µM | 12.6 µM |
| COc1cc2c(cc1O)C1Cc3ccc(OC)c(O)c3C[N+]1(C)CC2 (configuration not stated) | – | > 100 µM | > 100 µM | > 100 µM | > 100 µM | > 100 µM | > 100 µM | > 100 µM | > 100 µM | > 100 µM |
| N#CCCC(C=O)(CCC#N)CCC#N | > 100 µM | > 100 µM | > 100 µM | > 100 µM | > 100 µM | > 100 µM | > 100 µM | – | > 100 µM | > 100 µM |
| CCOC(=O)c1c(N)sc2c1C(C(=O)OCC)CCCC2 (configuration not stated) | – | > 100 µM | > 100 µM | > 100 µM | – | > 100 µM | > 100 µM | > 100 µM | – | > 100 µM |
| O=C(CNc1ccccc1C(=O)O)Nn1cnc2ccc(S(=O)(=O)Nc3ccccc3C(=O)O)cc2c1=O | > 100 µM | > 100 µM | > 100 µM | > 100 µM | > 100 µM | – | > 100 µM | > 100 µM | > 100 µM | > 100 µM |
| Cc1nc(NC(C)(CO)CO)nc(N/N=C/c2ccc(Cl)cc2)c1C(=O)Nc1ccc(Cl)cc1 | > 100 µM | > 100 µM | > 100 µM | > 100 µM | > 100 µM | – | > 100 µM | > 100 µM | > 100 µM | > 100 µM |
| CN(CCCCCl)P(=O)(OCc1ccc([N+](=O)[O-])o1)OCC1OC(n2ccc(N)nc2=O)C(O)C1O (configuration not stated) | 24.3 µM | > 100 µM | 33.1 µM | > 100 µM | 38.9 µM | 1.15 µM | 2.69 µM | 11 µM | 20.5 µM | – |
| N#Cc1c(-c2ccc([N+](=O)[O-])cc2)c(C#N)c(=O)n(NS(=O)(=O)c2ccccc2)c1S | 42.4 µM | > 100 µM | – | > 100 µM | 46.1 µM | 30.4 µM | > 100 µM | 46.5 µM | 38 µM | 39.2 µM |
| CSC(SC)=C(C(=O)c1ccc(Cl)cc1)n1c(=O)sc2cc(Br)ccc21 | > 100 µM | > 100 µM | > 100 µM | > 100 µM | > 100 µM | > 100 µM | > 100 µM | > 100 µM | > 100 µM | – |
| O=C1[C@@H]2[C@@H](CN3CN(c4ccccc4)N=C(c4ccccc4)[C@@]23c2ccccc2)C(=O)N1c1ccccc1 | 1.13 µM | 3.13 µM | 23.6 µM | 5.25 µM | – | 32.6 µM | 3.83 µM | > 100 µM | 3.3 µM | 13.2 µM |
| COc1ccc(-c2ccc(C(=O)C=P(c3ccccc3)(c3ccccc3)c3ccccc3)cc2)cc1 | – | 47.1 µM | 51 µM | 29.6 µM | 35.9 µM | 22.4 µM | 13.9 µM | 10.9 µM | 31.5 µM | – |
| COC1(CC[C@@H](C)COC2OC(CO)C(O)C(O)C2O)OC2C[C@H]3[C@@H]4CC[C@H]5C[C@@H](OC6OC(CO)C(OC7OC(CO)C(O)C(O)C7O)C(O)C6OC6OC(C)C(O)C(O)C6O)[C@H](O)C[C@]5(C)[C@H]4CC[C@]3(C)C2[C@@H]1C (some centres not stated) | 4.63 µM | 3.82 µM | – | > 22.8 µM | 3.34 µM | 3.36 µM | 6.69 µM | 8.14 µM | 3.22 µM | – |
| O=C1c2ccccc2-c2nc3ccncc3n21 | > 100 µM | > 100 µM | > 100 µM | > 100 µM | > 100 µM | – | > 100 µM | > 100 µM | – | > 100 µM |
| CCC1(O)CC(CCN(Cc2ccccc2)C(=O)OCc2ccccc2)C(OCc2ccccc2)C1O (configuration not stated) | 23.5 µM | 36.8 µM | 30.4 µM | 31.7 µM | – | 30.9 µM | 34.2 µM | 7.56 µM | 86.7 µM | 33.3 µM |
| CC(O)c1nc(C#N)c(N)o1 (configuration not stated) | > 100 µM | > 100 µM | > 100 µM | – | > 100 µM | > 100 µM | > 100 µM | > 100 µM | > 100 µM | – |
